Experimental data taken from patent US8404660B2, “Method of obtaining of 4-N-furfurylcytosine and/or its derivatives, an anti-aging composition and use of 4-N-furfurylcytosine and/or its derivatives in the manufacture of anti-aging composition” (Instytut Chemii Bioorganicznej Pan, priority 2007, dated 2013).
“Also recorded” adds a separate entry of the source.

What was measured:
GAPDH [1] = experiment: RT-PCR analysis of GAPDH gene expression in HeLa cells (internal control); assay type: cell-based; details: 100 μM FC, 24 hours, vs untreated control
Protocol: In other test, we have analyzed influence of FC on the specific gene expression. In this case it was DNMT-1. Effect of FC on DNMT-1 expression was check in HeLa cells after 24 hours (FIG. 3A).
(§1) HeLa and fibroblast cells are routinely maintained in this laboratory. Fibroblast cells were grown in Optimem medium supplemented with 10% fetal calf serum and antibiotics, HeLa cells were grown in RPMI 1640 supplemented with 10% fetal calf serum and antibiotics (penicillin 100 U/ml and streptomycin 100 ug/ml). All cell lines were incubated in a humidified atmosphere with 5% CO2 in air at 37° C.
Total RNA from cells was isolated using TRIZOL reagent (Invitrogen). Samples for analyses of gene expression were prepared from cultured Hela and fibroblast cells Aliquots (1×10^6 cells) were removed and homogenized in TRIZOL reagent (Invitrogen). Total RNA was then chloroform extracted and precipitated using iso-propanol and ethanol. Reverse transcription was carried out using: 2 μg RNA, random primer and RevertAid™ H Minus M-MuLV reverse transcriptase (Fermentas) according to the manufactures instructions. The resultant cDNA was amplified with primers complementary to the glyceraldehyde-3-phosphate dehydrogenase, GAPDH (G1: GGGTGGAGCCAAACGGGTC, G2: […]) PCR reaction was initiated with denaturation at 94° C. for 2 min, annealing at 55° C. for 1 min, extension at 72° C. for 30 sec, followed by 30 cycles. […]

fibroblast cells = experiment: cytotoxic effect of FC on fibroblast cell viability, long-term culture; assay type: cell-based; details: 100 μM FC, vs untreated control
Protocol: It was observed much less living cells and after 5 weeks they are clearly death (FIG. 2A).
as §1
There 1×10^6 cells on 6-well plates were used to study the cytotoxicity area of FC on cell growth in the presence or absence of FC.

[2] = solubility observed during purification; assay type: physicochemical
Protocol: The second step was the reaction of furfurylamine (FIG. 1 V) with 4-N-p-toluenesulfonyl-2′-deoxycytidine (FIG. 1 I). The third step was depended on creating of 4-N-furfurylcytosine (FIG. 1 III), by cleavage of N-glycosyl bond by solution of inorganic acid in water (pH of this solution was about 3).
In this reason, purify on the column was performed in warm water (40-45° C.). The column was referred by aluminium foil, because the decrease temperature of water was carried out to precipitate of the product on the gel. The purification of the product was performed two times, because acid degradation of ribose gave a lot of byproducts, obstructed purification. The main product was eluted in 0.1% warm water solution of methanol. When the temperature of solvent was higher than 45° C., the product could elute earlier. The 4-N-furfurylcytosine was crystallized in water, gave colorless crystals, which form thin needles.

GAPDH [3] = experiment: RT/PCR analysis of GAPDH gene expression in fibroblast cells; assay type: cell-based; details: fibroblast cells cultured 5 weeks with 100 μM FC; phosphoimager analysis
Protocol: To confirm this observation total RNA was isolated and RT/PCR was perform to analyzed total GAPDH gene expression as a result of condition of cells survival (FIG. 2B) The phosphoimager analysis was performed to determined differences in GAPDH expression in fibroblast cells. We observed that it is 72% lower in FC treated cells in comparison to the control (FIG. 2C).
Total RNA from cells was isolated using TRIZOL reagent (Invitrogen). Samples for analyses of gene expression were prepared from cultured Hela and fibroblast cells Aliquots (1×10^6 cells) were removed and homogenized in TRIZOL reagent (Invitrogen). Total RNA was then chloroform extracted and precipitated using iso-propanol and ethanol. Reverse transcription was carried out using: 2 μg RNA, random primer and RevertAid™ H Minus M-MuLV reverse transcriptase (Fermentas) according to the manufactures instructions. The resultant cDNA was amplified with primers complementary to the glyceraldehyde-3-phosphate dehydrogenase, GAPDH (G1: GGGTGGAGCCAAACGGGTC, G2: […]) PCR reaction was initiated with denaturation at 94° C. for 2 min, annealing at 55° C. for 1 min, extension at 72° C. for 30 sec, followed by 30 cycles. Equal volumes of amplified products were electrophoresed on […] gel and stained with ethidium bromide.
Differences in expression level were determined using Phosphoimager and ImageQant program.

**Q.** Which results are given for `O=c1nc(NCc2ccco2)cc[nH]1` [FC, 4-N-furfurylcytosine]?
**A.** GAPDH expression level (GAPDH [1]): stable and similar; fibroblast cell viability (fibroblast cells; after 3 weeks of culture): decreases in cell viability; fibroblast cell viability / cytotoxic effect (fibroblast cells; after 5 weeks of culture): clearly death; also recorded: cytotoxic effect; solubility in solvents ([2]; all solvents): low solubility; solubility in water ([2]; water, increases with temperature): best solubility; GAPDH expression lower in FC treated cells in comparison to the control (GAPDH [3]): 72%
